Results published in patent US20240082416A1, “AMATOXIN ANALOGS AND USES THEREOF” (THE UNIVERSITY OF BRITISH COLUMBIA, priority 2020, published 2024).
Values joined by “and” are separate entries in the source; they are usually repeats but may differ in a detail not shown here. Equal values may be shown once. Starred links: 1 amine or outer side, 2 acyl side, 3 side chain; linkers in the order of their positions; H or OH if unused. Positions of bridges follow the written chain, without caps; N, C: chain ends. Non-standard residues stand in square brackets, D forms with d. Residues, ends and D or L forms follow the SMILES beside them. X4 = CC(C)(C)OC(=O)/N=C(\N)N[C@@H]1C[C@@H](C(=O)[*:2])N([*:1])C1; Trp(2-yl) = O=C([C@H](Cc1c([*:3])[nH]c2ccccc12)N[*:1])[*:2]; Ile(4R-OH,5-OH) = C[C@H]([C@H](N)C(=O)O)[C@@H](O)CO; X3 = CC(=O)NCS[C@@H]1C[C@@H](C(=O)[*:2])N([*:1])C1; X5 = COC(=O)N[C@@H]1C[C@@H](C(=O)[*:2])N([*:1])C1

Experiments:
[1] = Viability assay against CHO cells (MTT colorimetric assay); assay type: cell-based, Chinese hamster; settings: Chinese hamster, CHO cells, 72 h, replicates n = 1, 2, 3, read-out: % viable cells; for viability at 72 h, 1.25e-06 M: 1.25e-006 M; for viability at 72 h, 1.56e-07 M: 1.56e-007 M; for viability at 72 h, 2.5e-06 M: 2.5e-006 M; for viability at 72 h, 5e-06 M: 5e-006 M; for viability at 72 h, 6.25e-07 M: 6.25e-007 M; for viability at 72 h, 7.8e-08 M: 7.8e-008 M
Description: (§1) (f) Cell culture: Cells were cultured in Minimum Essential Medium Eagle—Alpha Modification (α-MEM) or […] Dulbecco's Modified Eagle Medium (DMEM), purchased from Gibco. […] All cell culture plastic ware was obtained from Coming or Falcon. Cells were cultured at 37° C. in a humidified chamber with 5% CO2. When used in cell culture, DMSO was purified by filtration through a […] filter. All experiments were carried out in a laminar flow culture cabinet, unless otherwise noted.
(§2) Immortalized CHO cells had been stored in liquid nitrogen. To revive cells, a 1-mL tube of the frozen cells in medium containing 10% DMSO was warmed in a 30° C. water bath and diluted with 9 mL of fresh media. Media contained 10% FBS and 100 U/mL penicillin and […] streptomycin, unless otherwise indicated. The cells were incubated in a T-25 flask at 37° C. at 5% CO2. After 24 hours, the medium was aspirated and replaced with fresh medium. When cells reached a level of 90-100% confluence, they were sub-cultured. […] Once the cells were detached from the tissue culture flask, 3-5 mL media was added to quench the trypsin and the mixture was transferred to a 10 mL centrifuge tube. The mixture was centrifuged for 5 min at […], and the supernatant was discarded. The cells were suspended in fresh medium, diluted as required, and transferred to a new culture flask.
(§3) To assay cell viability, a nearly confluent tissue culture flask was trypsinized, and the cells were counted following treatment with Trypan blue, using a hemocytometer. The cells were then diluted to the appropriate stock concentrations in fresh medium and transferred in 100 μL to a 96-well plate using a multi-channel pipette. The number of cells plated varied from experiment to experiment. These were incubated at 37° C. and 5% CO2 for a 24-hour period to allow for adherence. The medium was aspirated, and fresh medium was added, which contained the desired additives in DMSO. The cells were then re-incubated for 72 h. At the completion of the experiment, a 100 μL aliquot of 25 mg/mL MTT in phosphate-buffered saline (PBS) was added to each well. The plate was incubated three hours further to allow for the formation of the formazan product in viable cells. The media was carefully aspirated, and the purple product was solubilized in DMSO. […] Data was processed in Microsoft Excel and GraphPad Prism. Experiments were performed in triplicates unless otherwise noted, and the error bars were calculated as the standard error of the mean.
(§4) Each cell line was plated in a 96-well plate, with 100 μL of the stock solution per well (5000 cells per well) and incubated for 24 hours. […] The cells were incubated for 72 hours, at which point viability was assessed as described.

[2] = system: CHO cells; experiment: as above; assay type: cell-based, Chinese hamster; settings: 72 h, replicates n = 1, 2, 3
Description: as §1, §2, §3, §4

[3] = biological target: T1, Pol II (Homo sapiens, UniProt P24928); experiment: In vitro transcription runoff assay using HeLaScribe nuclear extract; assay type: biochemical; settings: for IC50: IC50 (nM), Table 12, n = 3, high values estimated from activity at [I]=1.0 μM
T1 construct: HeLaScribe® nuclear extract containing Pol II and all other transcription factors; purchased Promega; host or cells: HeLa nuclear extract (endogenous protein)
Text: (h) In vitro transcription assay of synthetic amanitins containing analogs of Hyp: Primers were purchased from IDT via standard phosphoramidite chemistry. dNTP and rNTP were purchased from Thermofisher. GoTaq polymerase and HeLaScribe*Nuclear Extract in vitro Transcription System was purchased from Promega. Taq polymerase was purchased from NEB. [^32P] α-dGTP (3000 Ci/mmol 10 mCi/ml EasyTide) and [^32P] α-GTP (3000 Ci/mmol 10 mCi/ml EasyTide) were purchased from Perkin Elmer. QIAquick PCR purifcation kit was purchased from Qiagen. AcGFP1-N1 was a gift (Addgene plasmid #54705; http://n2t.net/addgene:54705; RRID:Addgene_54705). DNA Primer sequences were:
The DNA template for transcription runoff was synthesized by PCR with template pAcGFP-N1, and primers P1 and P2. To a final volume of 20 μL, 1 x GoTaq Buffer, 250 μM of each dNTP, 500 nM of each primers P1 and P2, […] pAcGFP-N1 and 0.05 U/μL GoTaq were employed to thermocycle for 30 cycles (30 s at 95° C., 30 s at 50° C. and 60 s at 72° C., Bio-Rad). A 1 μL aliquot of the amplified solution was resolved with 6×DNA loading dye in a 1% agarose gel containing […] and then visualized using GelDoc XR imager (Bio-Rad). Purification was completed via QIAquick PCR purification kit (Qiagen). The radioactive chromatographic standard was synthesized by PCR with template pAcGFP-N1, and primers P3 and P4. To a final volume of 50 μL, 1 x Thermopol Buffer, 200 μM of each dNTP, 500 nM of each primers P3 and P4, 10 pg/μL pAcGFP-N1 and 0.02 U/μL Vent polymerase, 1 μL [^32P] α-dGTP were employed to thermocycle for 30 cycles (30 s at 95° C., 30 s at 62° C. and 30 s at 72° C., Bio-Rad). A 1 μL aliquot of the amplified solution was resolved with 6×DNA loading dye in 8% denaturing PAGE and then visualized by autoradiography via the Typhoon 9200 imager (Molecular namics-Amersham-GE). Purification was completed via QIAquick PCR purification kit (Qiagen). The transcription runoff assay was modified from HeLaScribe® Nuclear Extract in vitro Transcription System (Promega). […]. The pellet was resolved by 8% denaturing PAGE and then visualized by autoradiography via the Typhoon 9200 imager (Molecular dynamics-Amersham-GE). Dosimetry was calculated by ImageJ, and the 3 parameter logistic fit was completed by Origin 2019 (OriginLab). […]
All data were presented in mean±standard deviation (n=3).

CC[C@H](C)[C@@H]1NC(=O)CNC(=O)[C@@H]2Cc3c([nH]c4ccccc34)SC[C@H](NC(=O)CNC1=O)C(=O)N[C@@H](CC(N)=O)C(=O)N1C[C@H](NC(=O)OC)C[C@H]1C(=O)N[C@@H]([C@@H](C)[C@@H](O)CO)C(=O)N2 [Compound 32, MeOCONH-Pro-amanitin] (cyclo(CN[X5][Ile(4R-OH,5-OH)][Trp(2-yl)]GIG); thioether 1-5)
viability at 72 h, 1e-05 M ([1]; 1e-005 M): 86% | viability at 72 h, 1.25e-06 M [1]: 89% | viability at 72 h, 1.56e-07 M [1]: 88% | viability at 72 h, 2e-05 M ([1]; 2e-005 M): 99% | viability at 72 h, 2.5e-06 M [1]: 88% | viability at 72 h, 3.125e-07 M ([1]; 3.125e-007 M): 89% | viability at 72 h, 5e-06 M [1]: 92% | viability at 72 h, 6.25e-07 M [1]: 91% | viability at 72 h, 7.8e-08 M [1]: 88% | % viable cells ([2]; 1e-005 M, listed as MeOCOHN-Pro-amanitin (32)): 96% | % viable cells ([2]; 1.25e-006 M, listed as MeOCOHN-Pro-amanitin (32)): 93% | % viable cells ([2]; 1.56e-007 M, listed as MeOCOHN-Pro-amanitin (32)): 87% and 96% | % viable cells ([2]; 2e-005 M, listed as MeOCOHN-Pro-amanitin (32)): 103% and 102% | % viable cells ([2]; 3.125e-007 M, listed as MeOCOHN-Pro-amanitin (32)): 87% and 94% | % viable cells ([2]; 5e-006 M, listed as MeOCOHN-Pro-amanitin (32)): 87% | % viable cells ([2]; 6.25e-007 M, listed as MeOCOHN-Pro-amanitin (32)): 98% | % viable cells ([2]; 7.8e-008 M, listed as MeOCOHN-Pro-amanitin (32)): 97%

CC[C@H](C)[C@@H]1NC(=O)CNC(=O)[C@@H]2Cc3c([nH]c4ccccc34)SC[C@H](NC(=O)CNC1=O)C(=O)N[C@@H](CC(N)=O)C(=O)N1C[C@H](N/C(N)=N/C(=O)OC(C)(C)C)C[C@H]1C(=O)N[C@@H]([C@@H](C)[C@@H](O)CO)C(=O)N2 [Compound 9, Boc-Gdn-Pro-amanitin] (cyclo(CN[X4][Ile(4R-OH,5-OH)][Trp(2-yl)]GIG); thioether 1-5)
viability at 72 h, 1.25e-06 M [1]: 84% | viability at 72 h, 1.56e-07 M [1]: 87% | viability at 72 h, 2.5e-06 M [1]: 86% | viability at 72 h, 3.9e-08 M ([1]; 3.9e-008 M): 88% | viability at 72 h, 5e-06 M [1]: 86% | viability at 72 h, 6.25e-07 M [1]: 84% | viability at 72 h, 7.8e-08 M [1]: 85% | % viable cells ([2]; 1e-005 M, listed as Boc-Gdn-Pro-amanitin (9)): 103% and 98% and 119% | % viable cells ([2]; 1.25e-006 M, listed as Boc-Gdn-Pro-amanitin (9)): 89% and 100% | % viable cells ([2]; 1.56e-007 M, listed as Boc-Gdn-Pro-amanitin (9)): 97% | % viable cells ([2]; 2.5e-006 M, listed as Boc-Gdn-Pro-amanitin (9)): 100% | % viable cells ([2]; 3.125e-007 M, listed as Boc-Gdn-Pro-amanitin (9)): 82% and 90% and 103% | % viable cells ([2]; 3.9e-008 M, listed as Boc-Gdn-Pro-amanitin (9)): 102% | % viable cells ([2]; 5e-006 M, listed as Boc-Gdn-Pro-amanitin (9)): 104% | % viable cells ([2]; 6.25e-007 M, listed as Boc-Gdn-Pro-amanitin (9)): 102% | % viable cells ([2]; 7.8e-008 M, listed as Boc-Gdn-Pro-amanitin (9)): 101% | IC50 [3]: > 600 nM | inhibitory effects ([3]; up to 1 μM concentrations): did not exhibit any noticeable inhibitory effects

CC[C@H](C)[C@@H]1NC(=O)CNC(=O)[C@@H]2Cc3c([nH]c4ccccc34)SC[C@H](NC(=O)CNC1=O)C(=O)N[C@@H](CC(N)=O)C(=O)N1C[C@H](SCNC(C)=O)C[C@H]1C(=O)N[C@@H]([C@@H](C)[C@@H](O)CO)C(=O)N2 [Compound 8, SAcm-Pro-amanitin] (cyclo(CN[X3][Ile(4R-OH,5-OH)][Trp(2-yl)]GIG); thioether 1-5)
% viable cells ([2]; 1e-005 M, listed as SAcm-Pro-amanitin (8)): 90% and 99% | % viable cells ([2]; 1.25e-006 M, listed as SAcm-Pro-amanitin (8)): 85% and 92% and 106% | % viable cells ([2]; 1.56e-007 M, listed as SAcm-Pro-amanitin (8)): 94% and 93% and 113% | % viable cells ([2]; 2e-005 M, listed as SAcm-Pro-amanitin (8)): 110% and 105% and 99% | % viable cells ([2]; 2.5e-006 M, listed as SAcm-Pro-amanitin (8)): 87% and 92% and 105% | % viable cells ([2]; 3.125e-007 M, listed as SAcm-Pro-amanitin (8)): 88% and 93% and 110% | % viable cells ([2]; 5e-006 M, listed as SAcm-Pro-amanitin (8)): 86% and 89% | % viable cells ([2]; 6.25e-007 M, listed as SAcm-Pro-amanitin (8)): 93% and 90% and 108% | IC50 [3]: > 1000 nM
